The record followed here is ChEMBL document CHEMBL3045226, “Synthesis and anti-tubercular evaluation of some novel pyrazolo[3,4-d]pyrimidine derivatives” (2012).

Where only a bound is given, the exact number is not on record here.

In assay [1] the test system is Mycobacterium tuberculosis. In words: Antimicrobial activity against Mycobacterium tuberculosis H37Rv at < 6.25 ug/ml. In kind it is functional.
The subject of assay [2] is Mycobacterium tuberculosis. In words: Antimicrobial activity against Mycobacterium tuberculosis H37Rv. Format: functional.

Consider `CC1=NN(c2ccc3c(c2)Nc2ccccc2S3)C2N=C(S)NC(c3ccc(O)cc3)C12` (stereo unspecified), for which the “inhibition (INH)” value in assay [1] is on record as 68%. In assay [2], this compound had an MIC greater than 6.25 µg/mL.

As to `CC1=NN(c2ccc3c(c2)Nc2ccccc2S3)C2N=C(S)NC(c3ccccc3Cl)C12` (stereo unspecified), the “inhibition (INH)” value in assay [1] is on record as 91%. Moreover, the MIC in assay [2] was less than 6.25 µg/mL.

In the case of `CC1=NN(c2ccc3c(c2)Nc2ccccc2S3)C2N=C(S)NC(c3ccc(Cl)cc3)C12` (stereo unspecified), in assay [1], the “inhibition (INH)” value is 74%. This compound also registered an MIC in assay [2] greater than 6.25 µg/mL.

Consider `CC1=NN(c2ccc3c(c2)Nc2ccccc2S3)C2N=C(S)NC(c3ccccc3[N+](=O)[O-])C12` (stereo unspecified), for which the “inhibition (INH)” value in assay [1] is on record as 96%. In assay [2], this compound gave an MIC of less than 6.25 µg/mL.

In the case of `CC1=NN(c2ccc3c(c2)Nc2ccccc2S3)C2N=C(S)NC(c3ccc([N+](=O)[O-])cc3)C12` (stereo unspecified), the “inhibition (INH)” value in assay [1] was 54%. The same compound displayed an MIC in assay [2] greater than 6.25 µg/mL.

In the case of `COc1ccc(C2NC(S)=NC3C2C(C)=NN3c2ccc3c(c2)Nc2ccccc2S3)cc1` (stereo unspecified), the “inhibition (INH)” value in assay [1] came out at 63%. In assay [2], this compound displayed an MIC greater than 6.25 µg/mL.

For `CC1=NN(c2ccc3c(c2)Nc2ccccc2S3)C2N=C(S)NC(c3ccccc3)C12` (stereo unspecified), the “inhibition (INH)” value in assay [1] worked out at 75%. This compound registered an MIC in assay [2] greater than 6.25 µg/mL.

Take `CC1=NN(c2ccc3c(c2)Nc2ccccc2S3)C2N=C(S)NC(c3ccccc3O)C12` (stereo unspecified): in assay [1], the “inhibition (INH)” value was 93%. Further, the MIC in assay [2] was less than 6.25 µg/mL.
